Results: ChEMBL document CHEMBL4476883, “Hydroxy formamide derivatives and their use” (2017)

Key:
[1] = target: T1, Bone morphogenetic protein 1 (Homo sapiens, UniProt P13497); assay: Inhibition of C-terminal FLAG-6x-His epitope tagged and N-terminal human RAGE signal sequence tagged human BMP1 (23 to 721 amino acids) expressed in CHO-E1A cells pre-incubated for 10 mins before promyostatin peptide substrate addition and measured after 60 mins using 0.5 nM BMP1 by FRET based assay; type: cell-based
T1 sequence (P13497 whole entry): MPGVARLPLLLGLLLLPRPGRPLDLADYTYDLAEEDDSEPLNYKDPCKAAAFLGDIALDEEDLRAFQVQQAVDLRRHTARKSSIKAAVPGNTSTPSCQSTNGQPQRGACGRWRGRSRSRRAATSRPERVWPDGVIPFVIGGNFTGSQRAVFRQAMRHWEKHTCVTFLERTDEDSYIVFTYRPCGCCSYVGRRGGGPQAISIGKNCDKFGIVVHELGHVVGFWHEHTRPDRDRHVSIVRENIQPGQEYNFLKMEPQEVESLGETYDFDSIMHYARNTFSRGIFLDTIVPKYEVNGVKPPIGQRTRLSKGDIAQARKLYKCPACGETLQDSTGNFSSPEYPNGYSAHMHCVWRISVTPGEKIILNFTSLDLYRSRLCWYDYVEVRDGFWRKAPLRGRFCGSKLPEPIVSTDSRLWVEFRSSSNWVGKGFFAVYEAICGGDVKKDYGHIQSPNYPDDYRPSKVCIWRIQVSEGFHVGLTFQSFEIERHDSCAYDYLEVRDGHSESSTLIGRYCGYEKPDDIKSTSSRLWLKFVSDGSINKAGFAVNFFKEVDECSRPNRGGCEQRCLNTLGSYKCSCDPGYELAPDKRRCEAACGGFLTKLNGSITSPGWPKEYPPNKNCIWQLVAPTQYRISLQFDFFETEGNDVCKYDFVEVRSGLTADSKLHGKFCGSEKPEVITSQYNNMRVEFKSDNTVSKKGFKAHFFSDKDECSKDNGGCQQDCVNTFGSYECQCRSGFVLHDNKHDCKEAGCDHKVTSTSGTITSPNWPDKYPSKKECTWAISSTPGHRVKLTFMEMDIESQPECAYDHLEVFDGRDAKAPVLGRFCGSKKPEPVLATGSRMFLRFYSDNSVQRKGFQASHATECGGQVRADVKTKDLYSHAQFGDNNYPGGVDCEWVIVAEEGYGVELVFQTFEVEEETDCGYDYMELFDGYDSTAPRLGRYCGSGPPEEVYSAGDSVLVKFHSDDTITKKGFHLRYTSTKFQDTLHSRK

[2] = target: T1, Bone morphogenetic protein 1; assay: Inhibition of C-terminal FLAG-6x-His epitope tagged and N-terminal human RAGE signal sequence tagged human BMP1 (23 to 721 amino acids) expressed in CHO-E1A cells pre-incubated for 10 mins before promyostatin peptide substrate addition and measured after 30 mins using 50 nM BMP1 by FRET based assay; type: cell-based
Tolloid-like protein 1 = Tolloid-like protein 1 (Homo sapiens, UniProt O43897, I156V/N221S/V284A); assay: Inhibition of recombinant human TLL1 I156V/N221S/V284A mutant expressed in CHOE1A cells pre-incubated for 10 mins before promyostatin peptide substrate addition and measured after 60 mins by FRET based assay; type: cell-based
Sequence of Tolloid-like protein 1 (O43897 148-1013 I156V/N221S/V284A limits assumed): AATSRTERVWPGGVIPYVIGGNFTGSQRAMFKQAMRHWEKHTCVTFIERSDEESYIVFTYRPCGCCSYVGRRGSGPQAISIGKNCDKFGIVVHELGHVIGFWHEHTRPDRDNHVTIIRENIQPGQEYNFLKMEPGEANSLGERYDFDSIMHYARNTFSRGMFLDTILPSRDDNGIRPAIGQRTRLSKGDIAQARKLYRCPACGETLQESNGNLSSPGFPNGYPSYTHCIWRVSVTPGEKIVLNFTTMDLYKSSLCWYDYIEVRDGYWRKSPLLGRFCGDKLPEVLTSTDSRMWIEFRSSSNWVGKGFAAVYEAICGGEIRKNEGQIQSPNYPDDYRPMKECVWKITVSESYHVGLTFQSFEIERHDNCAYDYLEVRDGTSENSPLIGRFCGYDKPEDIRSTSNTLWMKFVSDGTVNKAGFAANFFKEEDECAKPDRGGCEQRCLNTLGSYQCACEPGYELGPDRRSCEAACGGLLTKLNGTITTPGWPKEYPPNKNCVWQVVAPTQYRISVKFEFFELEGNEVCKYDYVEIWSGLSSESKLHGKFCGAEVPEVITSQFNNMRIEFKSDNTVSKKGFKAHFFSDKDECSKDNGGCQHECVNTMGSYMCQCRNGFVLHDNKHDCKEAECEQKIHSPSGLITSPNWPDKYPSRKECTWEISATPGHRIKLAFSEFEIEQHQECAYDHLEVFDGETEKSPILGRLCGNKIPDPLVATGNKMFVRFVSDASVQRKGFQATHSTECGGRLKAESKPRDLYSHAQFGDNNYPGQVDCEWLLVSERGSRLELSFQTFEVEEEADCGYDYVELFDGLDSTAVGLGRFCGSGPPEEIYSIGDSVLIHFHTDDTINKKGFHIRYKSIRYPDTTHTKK

Tolloid-like protein 2 = target: T2, Tolloid-like protein 2 (Homo sapiens, UniProt Q9Y6L7); assay: Inhibition of C-terminal Avi-6x-His epitope tagged and N-terminal human RAGE signal sequence tagged recombinant human TLL2 (26 to 1015 amino acids) expressed in CHOE1A cells incubated for 60 mins with promyostatin peptide substrate by FRET based assay; type: cell-based
T2 sequence (Q9Y6L7 whole entry): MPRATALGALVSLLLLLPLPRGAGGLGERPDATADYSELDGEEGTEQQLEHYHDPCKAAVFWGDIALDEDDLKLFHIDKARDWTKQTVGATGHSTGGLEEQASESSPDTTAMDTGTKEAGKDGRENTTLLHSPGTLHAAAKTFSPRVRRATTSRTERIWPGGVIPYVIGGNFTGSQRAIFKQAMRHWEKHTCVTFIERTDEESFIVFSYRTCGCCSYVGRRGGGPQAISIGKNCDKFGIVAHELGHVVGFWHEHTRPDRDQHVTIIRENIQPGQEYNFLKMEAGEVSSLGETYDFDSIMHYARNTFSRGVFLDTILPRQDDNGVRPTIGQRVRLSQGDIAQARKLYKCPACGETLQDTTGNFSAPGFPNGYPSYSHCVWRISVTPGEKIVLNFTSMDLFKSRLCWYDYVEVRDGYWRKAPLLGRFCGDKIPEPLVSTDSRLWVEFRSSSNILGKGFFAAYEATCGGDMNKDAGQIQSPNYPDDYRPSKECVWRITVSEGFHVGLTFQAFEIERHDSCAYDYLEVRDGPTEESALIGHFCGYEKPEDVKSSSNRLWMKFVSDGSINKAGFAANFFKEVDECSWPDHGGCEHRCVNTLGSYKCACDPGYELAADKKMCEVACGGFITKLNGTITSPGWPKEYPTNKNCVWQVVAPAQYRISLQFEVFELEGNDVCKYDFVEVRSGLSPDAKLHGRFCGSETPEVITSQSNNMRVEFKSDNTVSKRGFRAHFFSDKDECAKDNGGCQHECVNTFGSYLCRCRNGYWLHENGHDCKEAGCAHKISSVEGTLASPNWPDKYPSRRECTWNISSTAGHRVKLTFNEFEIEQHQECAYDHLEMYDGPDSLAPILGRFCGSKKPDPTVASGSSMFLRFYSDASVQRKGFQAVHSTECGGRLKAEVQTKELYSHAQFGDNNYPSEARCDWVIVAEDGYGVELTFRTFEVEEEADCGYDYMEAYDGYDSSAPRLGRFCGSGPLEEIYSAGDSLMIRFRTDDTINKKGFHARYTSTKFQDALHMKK

[3] = Reduction in PICP levels in human cardiac fibroblasts incubated for 24 to 48 hrs by ELISA; type: functional

CCCCC[C@H](CN(O)C=O)C(=O)NCNC(=O)c1cccc(-c2cncc(OC)c2)c1
IC50 [1]: < 0.126 µM
IC50 [2]: < 0.251 µM
IC50 (Tolloid-like protein 1): < 0.398 µM
IC50 (Tolloid-like protein 2): < 0.631 µM
IC50 [3]: < 20 µM

CCCCC[C@H](CN(O)C=O)C(=O)NCNC(=O)c1cccc(-n2cc(C)cn2)c1
IC50 [1]: < 0.126 µM
IC50 [2]: < 0.251 µM
IC50 (Tolloid-like protein 1): < 0.398 µM
IC50 (Tolloid-like protein 2): < 0.631 µM
IC50 [3]: < 20 µM

CCCCC[C@@H](C(=O)NCNC(=O)c1cccc(-c2cc(OCC)cc(S(=O)(=O)O)c2)c1)[C@@H](CC)N(O)C=O
IC50 [1]: < 0.126 µM
IC50 [2]: < 0.251 µM
IC50 (Tolloid-like protein 1): < 0.398 µM
IC50 (Tolloid-like protein 2): < 0.631 µM
IC50 [3]: < 20 µM

CCCCC[C@@H](C(=O)NCNC(=O)c1cccc(-c2ccc(P(=O)(O)O)c(OCC)c2)n1)[C@@H](CC)N(O)C=O
IC50 [1]: < 0.126 µM
IC50 [2]: < 0.251 µM
IC50 (Tolloid-like protein 1): < 0.398 µM
IC50 (Tolloid-like protein 2): < 0.631 µM
IC50 [3]: < 20 µM

CCCCC[C@H](CN(O)C=O)C(=O)NCNC(=O)c1cncc(-c2ccccc2)n1
IC50 [1]: < 0.126 µM
IC50 [2]: < 0.251 µM
IC50 (Tolloid-like protein 1): < 0.398 µM
IC50 (Tolloid-like protein 2): < 0.631 µM
IC50 [3]: < 20 µM

CCCCC[C@@H](C(=O)NCNC(=O)c1cccc(-c2ccc(C(=O)O)c(O)c2)c1)[C@@H](CC)N(O)C=O
IC50 [1]: < 0.126 µM
IC50 [2]: < 0.251 µM
IC50 (Tolloid-like protein 1): < 0.398 µM
IC50 (Tolloid-like protein 2): < 0.631 µM
IC50 [3]: < 20 µM

CCCCC[C@@H](C(=O)NCNC(=O)c1cccc(-c2ccc(C(=O)NCP(=O)(O)O)c(O)c2)n1)[C@@H](CC)N(O)C=O
IC50 [1]: < 0.126 µM
IC50 [2]: < 0.251 µM
IC50 (Tolloid-like protein 1): < 0.398 µM
IC50 (Tolloid-like protein 2): < 0.631 µM
IC50 [3]: < 20 µM

CCCCC[C@@H](C(=O)NCNC(=O)c1ccc(F)c(-c2ccc(C(=O)O)c(OCC)c2)n1)[C@@H](CC)N(O)C=O
IC50 [1]: < 0.126 µM
IC50 [2]: < 0.251 µM
IC50 (Tolloid-like protein 1): < 0.398 µM
IC50 (Tolloid-like protein 2): < 0.631 µM
IC50 [3]: < 20 µM

CCCCC[C@H](CN(O)C=O)C(=O)NCNC(=O)c1cc(C(F)(F)F)cc(-c2ccccc2)n1
IC50 [1]: < 0.126 µM
IC50 [2]: < 0.251 µM
IC50 (Tolloid-like protein 1): < 0.398 µM
IC50 (Tolloid-like protein 2): < 0.631 µM
IC50 [3]: < 20 µM

CCCCC[C@H](CN(O)C=O)C(=O)NCNC(=O)c1cccc(-c2cccc(OC)c2F)c1
IC50 [1]: < 0.126 µM
IC50 [2]: < 0.251 µM
IC50 (Tolloid-like protein 1): < 0.398 µM
IC50 (Tolloid-like protein 2): < 0.631 µM
IC50 [3]: < 20 µM

CCCCC[C@@H](C(=O)NCNC(=O)c1cccc(-c2cccc(C(=O)O)c2C)n1)[C@@H](CC)N(O)C=O
IC50 [1]: < 0.126 µM
IC50 [2]: < 0.251 µM
IC50 (Tolloid-like protein 1): < 0.398 µM
IC50 (Tolloid-like protein 2): < 0.631 µM
IC50 [3]: < 20 µM

CCCCC[C@@H](C(=O)NCNC(=O)c1cccc(-c2ccc(CC(=O)O)cc2)n1)[C@@H](CC)N(O)C=O
IC50 [1]: < 0.126 µM
IC50 [2]: < 0.251 µM
IC50 (Tolloid-like protein 1): < 0.398 µM
IC50 (Tolloid-like protein 2): < 0.631 µM
IC50 [3]: < 20 µM

CCCCC[C@@H](C(=O)NCNC(=O)c1cccc(-c2ccc(C(=O)N[C@@H](CC(=O)O)C(=O)O)c(OCC(=O)O)c2)n1)[C@@H](CC)N(O)C=O
IC50 [1]: < 0.126 µM
IC50 [2]: < 0.251 µM
IC50 (Tolloid-like protein 1): < 0.398 µM
IC50 (Tolloid-like protein 2): < 0.631 µM
IC50 [3]: < 20 µM

CCCCC[C@@H](C(=O)NCNC(=O)c1cc(C(=O)O)cc(-c2cc(OCC)cc(C(=O)O)c2)c1)[C@@H](CC)N(O)C=O
IC50 [1]: < 0.126 µM
IC50 [2]: < 0.251 µM
IC50 [3]: < 20 µM
